The record followed here is US20090186907A1, “Pyrazinones As Cellular Proliferation Inhibitors” (E.I. DuPont De Nemours and Company, priority 2006, published 2009).

The subject of test [1] is neuroblastoma (N1E115) cells. In words: Assay for inhibition of cell proliferation (MTT), neuroblastoma cells. The class given is cell-based, mouse. The note with it: for pIC50: neuroblastoma (N1E115) cells, MTT; for N1E115 Ratio (paclitaxel/compound): ratio of paclitaxel IC50 to compound IC50, N1E115 cells. As to the method:
(§1) Human rabdomyosarcoma (RD) and mouse neuroblastoma (N1E115) cell lines were obtained from the American Type Culture Collection (ATCC, Rockville, Md.). The RD cells were grown in Dulbecco's modified eagle medium (DMEM) supplemented with 4 mM glutamine, containing 10% fetal bovine serum (ATCC #30-2020) and supplemented with 1% penicillin and 1% streptomycin. When confluent, the cells were maintained by passage (about once per week) until needed. The N1E115 line was also cultured in DMEM with 4 mM glutamine containing 10% newborn calf serum (Gibco, Grand Island, N.Y.) and likewise maintained.
(§2) The proliferation of rhabdomyosarcoma cells was determined using a cell proliferation assay kit based on the formation of insoluble formazan crystals from 3-(4,5-dimethylthiazol-2-yl)-2,5-diphenyltetrazolium bromide (MTT). The rhabdomyosarcoma cells were cultured to a density of 10^5 cells per mL. The cell culture (100 μL) was dispensed into wells of a 96-well plate to 10^4 cells per well. The plate was incubated at 37° C. for 3 h until the cells firmly attached to the well surfaces.
(§3) A second 96-well round bottom plate was made up containing the test compounds, serially diluted to cover the concentration range of interest using the DMEM medium plus antibiotics. The final concentration of DMSO in which the compounds were initially dissolved was maintained at a constant 0.5% in each well and the volume of the compounds in the plate was 220 μL. Following the 3 h incubation the medium was removed from the plate containing the cells and replaced with 200 μL of the solutions containing the compounds. The cells were incubated for a further 96 h before the assessment of growth inhibition using MTT.
(§4) The cells were left bathing in 100 μL of the saline solution to which was added 100 μL of MTT in saline (12 mM). Incubation was continued for 4 h at 37° C. to produce the blue formazan color which was quantified by optical density measurements at 570 nm. Background correction of all test wells was performed by subtraction of the yellow MTT solution color measured at 570 nm in cell-free wells. The data were normalized to solvent only control wells.

The test system of test [2] is rhabdomyosarcoma (RD) cells. In words: Assay for inhibition of cell proliferation (MTT), rhabdomyosarcoma cells. The class given is cell-based, human. Conditions: for pIC50: rhabdomyosarcoma (RD) cells, MTT, 96 h incubation; for RD Ratio (paclitaxel/compound): ratio of paclitaxel IC50 to compound IC50, RD cells. As to the method: as §1, §2, §3, §4

pIC50: −log10 of the molar value.

As a reminder, the pIC50 is −log10 of the IC50, conventionally taken in molar units. Low readings indicate a large IC50, high ones a small IC50. As to `CC(C)Cn1c(-c2c(F)cccc2F)c(Cl)nc(-n2cccn2)c1=O` [Compound 1, 5-Chloro-6-(2,6-difluorophenyl)-1-(2-methylpropyl)-3-(1H-pyrazol-1-yl)-2(1H)-pyrazinone], the negative-log IC50 (pIC50) is 6.96 in test [1] (Mus musculus, N1E-115) and 6.30 in test [2] (Homo sapiens). The “N1E115 Ratio (paclitaxel/compound)” value in test [1] stood at 0.80. Besides, the “RD Ratio (paclitaxel/compound)” value in test [2] amounted to 0.03.
On to `CC(C)Cn1c(-c2c(F)cccc2F)c(Cl)nc(-n2cncn2)c1=O` [Compound 3], for which, in test [1], the negative-log IC50 (pIC50) is 6.10 and the “N1E115 Ratio (paclitaxel/compound)” value stood at 0.11. In test [2], the “RD Ratio (paclitaxel/compound)” value is 0.01 and the pIC50 is 5.52.
On the same counts, the results for `CCCCn1c(-c2c(F)cc(F)cc2F)c(Cl)nc(-c2ccccn2)c1=O` [Compound 240] are 7.23, 1.49, 0.01 and 5.78.
For `CC[C@H](C)Cn1c(-c2ccc(F)cc2Cl)c(Cl)nc(-n2cccn2)c1=O` [Compound 263] the same measures were 7.10, 1.10, 0.34 and 7.30.
On the same counts, the results for `O=c1c(-n2cccn2)nc(Cl)c(-c2c(F)cccc2F)n1Cc1ccc(F)cc1` [Compound 272] are 7.15, 1.26, 0.24 and 7.15.
As for `O=c1c(-n2cccn2)nc(Cl)c(-c2c(F)cc(F)cc2F)n1-c1cccc(F)c1` [Compound 324], in test [1], the pIC50 was 6.83 and the “N1E115 Ratio (paclitaxel/compound)” value turned out to be 0.60. Moreover, in test [2], the “RD Ratio (paclitaxel/compound)” value came out at 0.34 and the negative logarithm of the IC50 (pIC50) is 7.30.
On the same counts, the results for `CCC(C)Cn1c(-c2c(F)cc(F)cc2F)c(Cl)nc(C(N)=O)c1=O` (stereo not shown) [Compound 415] are 7.22, 1.47, 0.43 and 7.40.
With `CC[C@H](C)Cn1c(-c2c(F)cc(OC)cc2F)c(Cl)nc(-n2cccn2)c1=O` [Compound 457, 5-Chloro-1-[(2S)-2-methylbutyl)-3-(1H-pyrazol-1-yl)-6-(2,6-difluoro-4-methoxyphenyl)-2(1H)-pyrazinone], the negative logarithm of the IC50 (pIC50) in test [1] (Mus musculus, N1E-115) is 7.41; in test [2] (Homo sapiens) it was 8.96. The “N1E115 Ratio (paclitaxel/compound)” value in test [1] came to 2.26. Moreover, in test [2], the “RD Ratio (paclitaxel/compound)” value is given as 15.45.
For `O=c1c(-n2cccn2)nc(Cl)c(-c2c(F)cc(F)cc2F)n1CC1CC1` [Compound 460], in test [1], the pIC50 is 6.77 and the “N1E115 Ratio (paclitaxel/compound)” value is 0.52. Further, in test [2], the “RD Ratio (paclitaxel/compound)” value is 0.19 and the pIC50 is 7.05.
As to `CCC(C)Cn1c(-c2ccc(OCCN(C)C)cc2F)c(Cl)nc(-n2cccn2)c1=O` (stereo not shown) [Compound 477], in test [1], the pIC50 was 6.34 and the “N1E115 Ratio (paclitaxel/compound)” value was 0.19. Besides, in test [2], the “RD Ratio (paclitaxel/compound)” value amounted to 0.06 and the pIC50 is 6.58.
For `CCC(C)Cn1c(-c2ccc(OCCN3CCCC3)cc2F)c(Cl)nc(-n2cccn2)c1=O` (stereo not shown) [Compound 478], in test [1], the pIC50 is 5.96 and the “N1E115 Ratio (paclitaxel/compound)” value came to 0.08. In test [2], the “RD Ratio (paclitaxel/compound)” value is reported as 0.04 and the pIC50 was 6.33.
For the molecule `CCC(C)Cn1c(-c2c(F)cc(OCCN(C)C)cc2F)c(Cl)nc(-n2cccn2)c1=O` (stereo not shown) [Compound 479, 5-Chloro-6-[4-[2-(dimethylamino)ethoxy]-2,6-difluorophenyl]-1-(2-methylbutyl)-3-(1H-pyrazol-1-yl)-2(1H)-pyrazinone], the negative logarithm of the IC50 (pIC50) in test [1] (Mus musculus, N1E-115) was 7.60; in test [2] (Homo sapiens), 6.70. Moreover, the “N1E115 Ratio (paclitaxel/compound)” value in test [1] was found to be 3.52. Moreover, the “RD Ratio (paclitaxel/compound)” value in test [2] was 0.09.
As to `CCC(C)Cn1c(-c2c(F)cc(OCCN3CCCC3)cc2F)c(Cl)nc(-n2cccn2)c1=O` (stereo not shown) [Compound 480], in test [1], the pIC50 was 6.41 and the “N1E115 Ratio (paclitaxel/compound)” value was 0.22. Moreover, in test [2], the “RD Ratio (paclitaxel/compound)” value is reported as 0.04 and the negative logarithm of the IC50 (pIC50) was 6.33.
For the molecule `CN(C)CCCOc1cc(F)c(-c2c(Cl)nc(-n3cccn3)c(=O)n2CC2CC2)c(F)c1` [Compound 481, 5-chloro-1-cyclopropylmethyl-6-[4-[3-(dimethylamino)propoxy]-2,6-difluorophenyl]-3-(1H-pyrazol-1-yl)-2(1H)-pyrazinone], the negative-log IC50 (pIC50) in test [1] (Mus musculus, N1E-115) is 7.52; in test [2] (Homo sapiens) it was 8.49. Also, in test [1], the “N1E115 Ratio (paclitaxel/compound)” value is on record as 2.93. Moreover, the “RD Ratio (paclitaxel/compound)” value in test [2] is 5.37.
On the same counts, the results for `CC[C@H](C)Cn1c(-c2c(F)cc(OCCCN(C)C)cc2F)c(Cl)nc(-n2cccn2)c1=O` [Compound 482, 5-chloro-6-[4-[3-(dimethylamino)propoxy]-2,6-difluorophenyl]-1-[(2S)-2-methylbutyl]-3-(1H-pyrazol-1-yl)-2(1H)-pyrazinone] are 8.59, 8.82, 33.85 and 11.33.
With `CC[C@H](C)Cn1c(-c2c(F)cc(OCCN(C)C)cc2F)c(Cl)nc(-n2cccn2)c1=O` [Compound 483], in test [1], the negative logarithm of the IC50 (pIC50) was 7.09 and the “N1E115 Ratio (paclitaxel/compound)” value was found to be 1.09. In test [2], the “RD Ratio (paclitaxel/compound)” value stood at 0.43 and the pIC50 was 7.40.
On the same counts, the results for `CC[C@H](C)Cn1c(-c2c(F)cc(OCCN(C)C)cc2F)c(Cl)nc(C(N)=O)c1=O` [Compound 484] are 6.55, 0.31, 1.70 and 8.00.
As for `CC(Cn1c(-c2c(F)cc(OCCCN(C)C)cc2F)c(Cl)nc(-n2cccn2)c1=O)C(F)(F)F` (stereo not shown) [Compound 485, 5-chloro-6-[4-[3-(dimethylamino)propoxy]-2,6-difluorophenyl]-3-(1H-pyrazol-1-yl)-1-(3,3,3-trifluoro-2-methylpropyl)-2(1H)-pyrazinone], the pIC50 in test [1] (Mus musculus, N1E-115) was 6.82; in test [2] (Homo sapiens) it was 7.56. For the same molecule, the “N1E115 Ratio (paclitaxel/compound)” value in test [1] is reported as 0.58. In addition, the “RD Ratio (paclitaxel/compound)” value in test [2] is 0.62.
On to `CN(C)CCCOc1cc(F)c(-c2c(Cl)nc(-n3cccn3)c(=O)n2-c2cccc(F)c2)c(F)c1` [Compound 491], for which, in test [1], the negative logarithm of the IC50 (pIC50) is 7.66 and the “N1E115 Ratio (paclitaxel/compound)” value is recorded as 4.00. For the same molecule, in test [2], the “RD Ratio (paclitaxel/compound)” value is 0.60 and the pIC50 was 7.55.
For `CNCCCOc1cc(F)c(-c2c(Cl)nc(-n3cccn3)c(=O)n2-c2cccc(F)c2)c(F)c1.Cl` [Compound 492] the same measures were 7.80, 5.50, 5.15 and 8.48.
Consider `CC[C@H](C)Cn1c(-c2c(F)cc(OCCCNC)cc2Cl)c(Cl)nc(-n2cccn2)c1=O` [Compound 493, 5-chloro-6-[2-chloro-6-fluoro-4-[3-(methylamino)propoxy]phenyl]-1-[(2S)-2-methylbutyl]-3-(1H-pyrazol-1-yl)-2(1H)-pyrazinone], for which the pIC50 in test [1] (Mus musculus, N1E-115) is 8.35; in test [2] (Homo sapiens), 9.22. Besides, the “N1E115 Ratio (paclitaxel/compound)” value in test [1] was determined as 19.56. The “RD Ratio (paclitaxel/compound)” value in test [2] is given as 28.33.
In the case of `CC[C@H](C)Cn1c(-c2c(F)cc(OCCCNC)cc2F)c(Cl)nc(-n2ccc(C)n2)c1=O` [Compound 494, 5-chloro-6-[2,6-difluoro-4-[3-(methylamino)propoxy]phenyl]-1-[(2S)-2-methylbutyl]-3-(3-methyl-1H-pyrazol-1-yl)-2(1H)-pyrazinone], the negative-log IC50 (pIC50) in test [1] (Mus musculus, N1E-115) is 8.89; in test [2] (Homo sapiens), 9.40. For the same molecule, in test [1], the “N1E115 Ratio (paclitaxel/compound)” value came to 67.69. For the same molecule, the “RD Ratio (paclitaxel/compound)” value in test [2] was found to be 42.50.
As for `CC(C)Cn1c(-c2c(F)cc(OCCCN(C)C)cc2F)c(Cl)nc(-n2cccn2)c1=O` [Compound 495], in test [1], the pIC50 was 6.45 and the “N1E115 Ratio (paclitaxel/compound)” value is 0.25. Also, in test [2], the “RD Ratio (paclitaxel/compound)” value turned out to be 0.49 and the negative logarithm of the IC50 (pIC50) was 7.46.
As to `CNCCCOc1cc(F)c(-c2c(Cl)nc(-n3ccc(C)n3)c(=O)n2CC(C)C)c(F)c1` [Compound 496], in test [1], the negative-log IC50 (pIC50) is 7.05 and the “N1E115 Ratio (paclitaxel/compound)” value is 0.98. Further, in test [2], the “RD Ratio (paclitaxel/compound)” value was found to be 0.40 and the negative logarithm of the IC50 (pIC50) is 7.37.
On the same counts, the results for `Cc1ccn(-c2nc(Cl)c(-c3c(F)cc(OCCCN(C)C)cc3F)n(CC(C)C)c2=O)n1` [Compound 497] are 6.74, 0.49, 0.22 and 7.11.
